Data published in PubChem BioAssay (NCI).
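Cultured in 96-well plates, cells were exposed to test compound for 48 hours across five concentrations. Here, GI50 denotes the concentration required for 50% inhibition of growth. TGI: total growth inhibition.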

Tests used:
Assay in all cases: NCI-60 cell line screen, 48 h
[1] = tested on: 786-0 renal
[2] = tested on: A498 renal
[3] = tested on: A549 NSCLC
[4] = tested on: ACHN renal
[5] = tested on: BT-549 breast
[6] = tested on: CAKI-1 renal
[7] = tested on: CCRF-CEM leukemia
[8] = tested on: COLO 205 colon
[9] = tested on: DU-145 prostate
[10] = tested on: HCT-116 colon
[11] = tested on: HCT-15 colon
[12] = tested on: HL-60(TB) leukemia
[13] = tested on: HOP-62 NSCLC
[14] = tested on: HS 578T breast
[15] = tested on: HT29 colon
[16] = tested on: IGROV1 ovarian
[17] = tested on: K-562 leukemia
[18] = tested on: KM12 colon
[19] = tested on: LOX IMVI melanoma
[20] = tested on: M14 melanoma
[21] = tested on: MCF7 breast
[22] = tested on: MDA-MB-231 breast
[23] = tested on: MDA-MB-435
[24] = tested on: MOLT-4 leukemia
[25] = tested on: NCI-H226 lung
[26] = tested on: NCI-H23 lung
[27] = tested on: NCI-H460 lung
[28] = tested on: NCI-H522 lung
[29] = tested on: NCI/ADR-RES ovarian
[30] = tested on: OVCAR-3 ovarian
[31] = tested on: OVCAR-4 ovarian
[32] = tested on: OVCAR-5 ovarian
[33] = tested on: OVCAR-8 ovarian
[34] = tested on: PC-3 prostate
[35] = tested on: RPMI-8226 leukemia
[36] = tested on: SF-268 CNS
[37] = tested on: SF-295 CNS
[38] = tested on: SF-539 CNS
[39] = tested on: SK-MEL-2 melanoma
[40] = tested on: SK-MEL-28 melanoma
[41] = tested on: SK-MEL-5 melanoma
[42] = tested on: SK-OV-3 ovarian
[43] = tested on: SN12C renal
[44] = tested on: SNB-19 CNS
[45] = tested on: SNB-75 CNS
[46] = tested on: SW-620 colon
[47] = tested on: T-47D breast
[48] = tested on: U251 CNS
[49] = tested on: UACC-257 melanoma
[50] = tested on: UO-31 renal

O=C1C(=O)/C(=C/c2ccccc2)CCCCCC/C1=C/c1ccccc1
GI50 [1]: 1820 nM | TGI [1]: 3.33 µM | GI50 [2]: 13.7 µM | TGI [2]: 28.4 µM | GI50 [3]: 2330 nM | TGI [3]: 7.16 µM | GI50 [4]: 2570 nM | TGI [4]: 6.5 µM | GI50 [5]: 2330 nM | TGI [5]: 5 µM | GI50 [6]: 3.11 µM | TGI [6]: 18.6 µM | GI50 [7]: 3.05 µM | TGI [7]: 17.9 µM | GI50 [8]: 10.1 µM | TGI [8]: 32.6 µM | GI50 [9]: 3.73 µM | TGI [9]: 14 µM | GI50 [10]: 1500 nM | TGI [10]: 2820 nM | GI50 [11]: 1680 nM | TGI [11]: 3.24 µM | GI50 [12]: 2960 nM | TGI [12]: 8.87 µM | GI50 [13]: 3.44 µM | TGI [13]: 10.5 µM | GI50 [14]: 8.06 µM | TGI [14]: > 100 µM | GI50 [15]: 2040 nM | TGI [15]: 3.74 µM | GI50 [16]: 2930 nM | TGI [16]: 8.7 µM | GI50 [17]: 2940 nM | TGI [17]: 8.77 µM | GI50 [18]: 2700 nM | TGI [18]: 6.4 µM | GI50 [19]: 1820 nM | TGI [19]: 3.53 µM | GI50 [20]: 2290 nM | TGI [20]: 5.31 µM | GI50 [21]: 3.24 µM | TGI [21]: 31.8 µM | GI50 [22]: 2630 nM | TGI [22]: 6.52 µM | GI50 [23]: 2210 nM | TGI [23]: 5.05 µM | GI50 [24]: 3.17 µM | TGI [24]: 10.7 µM | GI50 [25]: 1760 nM | TGI [25]: 3.54 µM | GI50 [26]: 3.38 µM | TGI [26]: 13.7 µM | GI50 [27]: 2430 nM | TGI [27]: 6.09 µM | GI50 [28]: 4.68 µM | TGI [28]: 16.3 µM | GI50 [29]: 4.78 µM | TGI [29]: > 100 µM | GI50 [30]: 1920 nM | TGI [30]: 3.63 µM | GI50 [31]: 2780 nM | TGI [31]: 8.47 µM | GI50 [32]: 2680 nM | TGI [32]: 7.93 µM | GI50 [33]: 3.14 µM | TGI [33]: 12.7 µM | GI50 [34]: 3.19 µM | TGI [34]: 17.1 µM | GI50 [35]: 1900 nM | TGI [35]: 5.96 µM | GI50 [36]: 2740 nM | TGI [36]: 8.28 µM | GI50 [37]: 2580 nM | TGI [37]: 7 µM | GI50 [38]: 1980 nM | TGI [38]: 3.95 µM | GI50 [39]: 16.6 µM | TGI [39]: 34.4 µM | GI50 [40]: 3.9 µM | TGI [40]: 15.4 µM | GI50 [41]: 3.25 µM | TGI [41]: 12.1 µM | GI50 [42]: 8.9 µM | TGI [42]: 70.3 µM | GI50 [43]: 2350 nM | TGI [43]: 5.58 µM | GI50 [44]: 5.3 µM | TGI [44]: 20.2 µM | GI50 [45]: 2860 nM | TGI [45]: 17.6 µM | GI50 [46]: 3.21 µM | TGI [46]: 11.6 µM | GI50 [47]: 5.09 µM | TGI [47]: > 100 µM | GI50 [48]: 1620 nM | TGI [48]: 2970 nM | GI50 [49]: 2300 nM | TGI [49]: 6.15 µM | GI50 [50]: 1890 nM | TGI [50]: 3.88 µM
